Assay results taken from patent US20110045101A1, “FUNGICIDAL SUBSTITUTED AZOLES” (E.I. Du Pont De Nemours and Company, priority 2009, published 2011).
Marks after values point to notes of the source that are not given here.

Assays:
Format in all cases: in vivo
Settings in all cases: 100 = 100% disease control
Botrytis cinerea = assay: Test C: tomato Botrytis on tomato seedlings, sprayed the day before inoculation, visual disease rating
Procedure, shortened: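 Rate: 200 ppm sprayed to run-off, corresponding to 500 g/ha; flagged values used 40 ppm. Vehicle was aqueous acetone (1:1) plus 250 ppm surfactant, compounds predissolved in acetone at 3% of volume. Plants were tomato seedlings.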

Alternaria solani = assay: Test D: tomato early blight, sprayed the day before inoculation, visual disease rating
Procedure, shortened: (§1)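 Plants received a run-off spray at 200 ppm (equivalent to 500 g/ha) or, for starred values, 40 ppm. Formulation used acetone at 3% of volume in a 50/50 acetone/water mix carrying 250 ppm Trem® 014.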

Septoria nodorum = assay: Test F: wheat glume blotch on wheat seedlings, sprayed the day before inoculation, visual disease rating
Procedure, shortened: as §1

Septoria tritici = assay: Test G: wheat leaf blotch on wheat seedlings, sprayed the day before inoculation, visual disease rating
Procedure, shortened: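 Compounds dissolved in acetone (3% of final volume), then suspended in 50/50 acetone/water with 250 ppm Trem® 014 and sprayed to run-off on seedlings at 200 ppm (≈500 g/ha) or 40 ppm where marked. Inoculation with spores followed next day; visual rating after 48 h saturated at 24° C plus 19 days at 20° C.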

[1] = test system: Puccinia recondita f. sp. tritici; assay: Test H: wheat leaf rust, test suspension sprayed after inoculation of wheat seedlings, visual disease rating
Procedure, shortened: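 Wheat seedlings inoculated with P. recondita spores, held 24 h saturated at 20 °C, then 2 days in growth chamber at 20 °C; compound suspension (acetone/water with Trem 014) sprayed to run-off afterwards. Rated visually; 200 ppm (≈500 g/ha) unless marked *, which denotes 40 ppm.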

[2] = test system: Puccinia recondita f. sp. tritici; assay: Test I: wheat leaf rust on wheat seedlings, sprayed the day before inoculation, visual disease rating
Procedure, shortened: as §1

[3] = test system: Erysiphe graminis f. sp. tritici; assay: Test J: wheat powdery mildew on wheat seedlings, sprayed the day before inoculation, visual disease rating
Procedure, shortened: as §1

[4] = 200 ppm, 0 = no control relative to controls

Row | Compound | Test C disease control rating (Botrytis cinerea; [4]) | Test D disease control rating (Alternaria solani; [4]) | Test F disease control rating (Septoria nodorum; [4]) | Test G disease control rating (Septoria tritici; [4]) | Test H disease control rating [1, 4] | Test I disease control rating [2, 4] | Test J disease control rating [3, 4] | Test C disease control rating (Botrytis cinerea; 40 ppm (marked *)) | Test D disease control rating (Alternaria solani; 40 ppm (marked *)) | Test F disease control rating (Septoria nodorum; 40 ppm (marked *)) | Test G disease control rating (Septoria tritici; 40 ppm (marked *)) | Test H disease control rating ([1]; 40 ppm (marked *)) | Test I disease control rating ([2]; 40 ppm (marked *)) | Test J disease control rating ([3]; 40 ppm (marked *))
1 | COc1cc(F)c(-c2c(Cl)ncn2-c2ccc(OC(F)F)cc2)c(F)c1 [compound 557] | 100% | 99% | 78% | 96% | 43% | 99% | 87% | – | – | – | – | – | – | –
2 | N#Cc1ccc(F)c(-c2c(Cl)nc(Cl)n2-c2ccc(Cl)cc2)c1F [compound 407] | 100% | 0% | 92% | 96% | 0% | 97% | 98% | – | – | – | – | – | – | –
3 | Fc1ccc(-n2c(Br)nc(Br)c2-c2ccc(Cl)c(F)c2)c(Cl)c1 [compound 301] | 100% | 94% | 0% | 95% | 6% | 91% | 96% | – | – | – | – | – | – | –
4 | COCc1nc(Cl)n(-c2c(F)cccc2F)c1-c1ccc(Cl)cc1 [compound 467] | – | – | – | – | – | – | – | 94* % | 0* % | 0* % | 32* % | 0* % | 71* % | 96* %
5 | COc1ccc(F)c(-c2c(Cl)nc(Br)n2-c2ccc(Cl)nc2)c1F [compound 730] | 100% | 100% | 99% | 100% | 9% | 99% | 100% | – | – | – | – | – | – | –
6 | COc1cc(F)c(-n2c(Br)nc(C)c2-c2cccc(F)c2)c(F)c1 [compound 687] | – | – | – | – | – | – | – | 100* % | 100* % | 99* % | 98* % | 100* % | 100* % | 100* %
7 | COc1ccc(F)c(-c2c(Cl)nc(Cl)n2-c2cccc(OC(F)F)c2)c1F [compound 400] | 100% | 100% | 99% | 94% | 0% | 99% | 100% | – | – | – | – | – | – | –
8 | COc1ccc(F)c(-c2c(Cl)nc(Cl)n2-c2ccc(Cl)nc2)c1F [compound 709] | 100% | 100% | 100% | 99% | 100% | 100% | 100% | – | – | – | – | – | – | –
9 | COC(=O)c1ccc(-n2c(Cl)nc(Cl)c2-c2c(F)cccc2F)cc1 [compound 649] | – | – | – | – | – | – | – | 0* % | 0* % | 0* % | 97* % | 0* % | 61* % | 0* %
10 | COc1ccc(F)c(-c2c(Cl)nc(C)n2-c2ccc(Cl)c(C)c2)c1F [compound 425] | 100% | 100% | 100% | 100% | 0% | 96% | 100% | – | – | – | – | – | – | –
11 | COc1cc(F)c(-c2c(Cl)nc(C)n2-c2cccc(OC(F)F)c2)c(F)c1 [compound 588] | 100% | 100% | 100% | 97% | 100% | 100% | 100% | – | – | – | – | – | – | –
12 | COc1cc(F)c(-c2c(Cl)nc(SC)n2-c2ccc(C)cc2)c(F)c1 [compound 695] | 100% | 99% | 97% | 99% | 97% | 99% | 96% | – | – | – | – | – | – | –
13 | COc1cc(F)c(-c2c(Cl)nc(Cl)n2-c2cc(C)cnc2Cl)c(F)c1 [compound 677] | 100% | 100% | 100% | 99% | 100% | 100% | 100% | – | – | – | – | – | – | –
14 | CC(=O)Nc1ccc(-n2c(Cl)nc(Cl)c2-c2c(F)cccc2F)cc1 [compound 637] | – | – | – | – | – | – | – | 97* % | 0* % | 0* % | 92* % | 0* % | 65* % | 0* %
15 | Cc1nc(Br)c(-c2ccc(Cl)c(F)c2)n1-c1ccc(F)cc1Cl [compound 340] | 99% | 98% | 0% | 92% | 0% | 94% | 95% | – | – | – | – | – | – | –
16 | CCOc1ccc(F)c(-c2c(Cl)nc(Br)n2-c2cccc(F)c2)c1F [compound 663] | 100% | 99% | 99% | 99% | 54% | 99% | 100% | – | – | – | – | – | – | –
17 | COc1ccc(F)c(-c2c(Cl)nc(Cl)n2-c2ccc(Br)cc2)c1F [compound 562] | 100% | 100% | 99% | 100% | 0% | 99% | 100% | – | – | – | – | – | – | –
18 | Cc1ccc(-n2c(Cl)nc(C)c2-c2c(F)ccc(F)c2Cl)cc1 [compound 495] | – | – | – | – | – | – | – | 97* % | 99* % | 0* % | 31* % | 0* % | 99* % | 100* %
19 | COc1cc(F)c(-c2c(Cl)nc(Cl)n2-c2cccc(OC(F)(F)F)c2)c(F)c1 [compound 567] | 99% | 67% | 0% | 94% | 7% | 99% | 100% | – | – | – | – | – | – | –
20 | COc1cc(F)c(-c2c(Cl)nc(Cl)n2-c2ccc(Cl)nc2)c(F)c1 [compound 406] | 100% | 100% | 100% | 93% | 100% | 100% | 100% | – | – | – | – | – | – | –
21 | COc1ccc(F)c(-c2c(Cl)nc(Br)n2-c2cccc(C)c2)c1F [compound 316] | 99% | 99% | 95% | 93% | 6% | 99% | 100% | – | – | – | – | – | – | –
22 | COc1ccc(F)c(-c2c(Cl)nc(Cl)n2-c2ccc(Cl)c(C)c2)c1F [compound 399] | 100% | 99% | 82% | 96% | 0% | 82% | 100% | – | – | – | – | – | – | –
23 | COc1cc(F)c(-c2c(O)nc(C)n2-c2ccc(Cl)cc2)c(F)c1 [compound 672] | 96% | 0% | 0% | 87% | 0% | 0% | 0% | – | – | – | – | – | – | –
24 | Cc1nc(Cl)c(-c2c(F)cccc2F)n1-c1ccc2c(c1)OC(F)(F)O2 [compound 608] | – | – | – | – | – | – | – | 17* % | 0* % | 0* % | 4* % | 7* % | 41* % | 0* %
25 | CCOc1ccc(F)c(-c2c(Cl)nc(Br)n2-c2ccc(Cl)cc2)c1F [compound 662] | 100% | 99% | 100% | 99% | 0% | 98% | 100% | – | – | – | – | – | – | –
